Reference: patent USRE45313E1, “Exendin variant peptides” (priority 1999, dated 2014)

What was measured:
[1] = in vivo
Procedure: Compound 4 (batch No. ZP 7.97-5-F, 4053 g/mol) and Compound (iii) (batch No. ZP 7.73-2-G, 3854 g/mol) were synthesised in-house using the Fmoc strategy.
Plasma (250 μl) was transferred to ice-chilled 0.75 ml PLC vials containing 250 μl extraction solution (MeCN: 0.18 M Ammonium Carbonate pH 9.5, 10:90 v/v). The plasma samples were stored at −20 C until SPE and LC/MS analysis.

[2] = In vivo pharmacokinetics after i.v. administration to rabbits; conditions: iv; for half-life: New Zealand White, rabbit, in vivo, 1000 nmol/kg, iv 1000 nmol/kg, mean
Procedure: In order to establish whether this effect is sustained in vivo, the pharmacokinetic parameters of the two compounds are examined in rabbits.
Compound 4 (batch No. ZP 7.97-5-F, 4053 g/mol) and Compound (iii) (batch No. ZP 7.73-2-G, 3854 g/mol) were synthesised in-house using the Fmoc strategy. […] The peptides were dissolved in pyrogen free isotonic saline and both peptides were administered i.v. to rabbits and rats using a dose of 1000 nmol/kg.
Fifteen New Zealand White rabbits weighing 2.5 to 3.0 kg were used for the experiment. On the day of the experiment, the rabbits were anaesthetised with Hypnorm® i.m. followed by Dormicum® i.v., Catheters were inserted into the femoral vein and artery for i.v. administration of drugs and arterial blood sampling. The rabbits stayed unconscious throughout the experiment.
Blood samples were collected at t−1, 3, 5, 10, 15, 20, 30, 40, 60, 90, 120, 150, 180, and 240 min. The blood was collected in EDTA containing ice-chilled tubes and immediately centrifuged at 4 C for 5 min (20.000×g). Plasma (250 μl) was transferred to ice-chilled 0.75 ml PLC vials containing 250 μl extraction solution (MeCN: 0.18 M Ammonium Carbonate pH 9.5, 10:90 v/v). The plasma samples were stored at −20 C until SPE and LC/MS analysis.
The drug containing plasma samples (400 μl) are loaded onto OASIS™ HLB (Compound 4) or ISOLUTE™ (Compound (iii)) solid phase extraction columns preconditioned with 950 μl MeCN followed by 950 μl water. The columns are washed with 950 μl 2% TFA in water followed by an equal volume of 2% TFA in MeCN:water (20:78 v/v). The analytes are eluted with 500 μl 2% TFA in MeCN:water (60:38 v/v) and analysed by LC/MS.
The samples were kept at 18 C in the auto sampler tray prior to injection of 20 to 50 μl onto the LC column (Vydac 218MS52 (2.1×250 mm). The separations were performed at 30° C. using a flow rate of 250 μl/min and a gradient according to the table below. Both the test compound and the reference drug are detected by single ion recording (SIR) using the m/z=676.7 and the m/z=1095.2 and 821.8 ion species, respectively. All instrument conditions were controlled by MassLynx software ver. 3.3 software.
The plasma samples were analysed as described under materials and methods and the plasma concentration (Cpl) plotted versus time in a semi log diagram. The plasma concentration were followed for three hours in rabbits, whereas the limited blood volume of rats restricted the blood sampling in this specie to one hour. The Cpl vs. time curves from the individual rabbits were fitted to a two-compartment open model (figure not shown) using 1/y^2 weighted least squares in WinNonlin 3.1 (Pharsight Corp. (Mountain View, Calif.)).
Table 5: The pharmacokinetic constants were obtained from rabbits when the Cpl vs. time curves was fitted mathematically. The compounds were administered iv in a concentration of 1000 nmol/kg. T1/2 values are given in minutes (min) for the a and P phase.

[3] = test system: ob/ob mice; assay: Blood glucose levels in ob/ob mice after peroral and intraperitoneal administration (Example 25); type: in vivo
Text: Forty female diabetic ob/ob mice (Umeä strain, Bomholtgaard), which are obese due to a dominant mutant leptin (Tomita, T., Doull, V., Pollock, H. G., and Krizsan, D. 1992. Pancreatic islets of obese hyperglycemic mice (ob/ob). Pancreas 7: 367-75) were housed (3 mice/cage) under controlled ambient conditions following a 12:12-h light: dark cycle and fed standard Altromin no 1324 diet with free access to tap water. At arrival the animals were 8 weeks of age. The mice were allowed 2 weeks of acclimatization before experiments were initiated. […] Handling of the mice one and three days before the experiment was performed in order to reduce stress-induced BG excursions. On the day of the experiment, blood was taken from the tip of the tail 2-3 hours after the light was turned on. A single drop of blood (<5 μl) was dropped on the glucose strip for analysis and measured by an Elite Autoanalyser, Bayer, Denmark. Whole blood glucose (BG) concentration was analysed by the immobilised glucose oxidase method. […] Six animals with BG <5.8 mM were excluded from the study (total n=36). The remaining animals were stratified based on their BG levels in order to ensure that the mean BG was similar among groups.
Various concentrations of each peptide are administered orally and intraperitoneally to ob/ob mice to determine if these compounds affect blood glucose levels. The experimental conditions used were the same as described in Example 24.
Solutions are prepared on the morning of dosing, immediately before the animals are administered. The same solutions are used for both peroral and interperitoneal administration. All peptides are dissolved in sterile isotonic NaCl and given in a volume of 0.2 ml. As negative control, saline is administered perorally.
In order to analyse the effects of the compounds, the absolute and the relative (% of t=0) difference from baseline was calculated for each time point.

SMILES	half-life ([2]; T1/2, α) [min]	half-life ([2]; T1/2, β) [min]	blood glucose relative to baseline ([3]; 1 μg po, 1 hour)	blood glucose relative to baseline ([3]; 1 μg po, 2 hours)	blood glucose relative to baseline ([3]; 1 μg po, 4 hours)	blood glucose relative to baseline ([3]; 10 μg po, 1 hour)	blood glucose relative to baseline ([3]; 10 μg po, 2 hours)	blood glucose relative to baseline ([3]; 10 μg po, 4 hours)	blood glucose relative to baseline ([3]; 100 μg ip, 1 hour)	blood glucose relative to baseline ([3]; 100 μg ip, 2 hours)	blood glucose relative to baseline ([3]; 100 μg ip, 4 hours)	blood glucose relative to baseline ([3]; 100 μg po, 1 hour)	blood glucose relative to baseline ([3]; 100 μg po, 2 hours)	blood glucose relative to baseline ([3]; 100 μg po, 4 hours)	blood glucose relative to baseline ([3]; 1000 μg po, 1 hour)	blood glucose relative to baseline ([3]; 1000 μg po, 2 hours)	blood glucose relative to baseline ([3]; 1000 μg po, 4 hours)	further results
CC[C@H](C)[C@H](NC(=O)[C@H](Cc1ccccc1)NC(=O)[C@H](CCC(=O)O)NC(=O)[C@H](CCCCN)NC(=O)[C@H](C)NC(=O)[C@H](C)NC(=O)[C@H](CCC(N)=O)NC(=O)CNC(=O)[C@H](CCC(=O)O)NC(=O)[C@H](CC(C)C)NC(=O)[C@H](Cc1ccc(O)cc1)NC(=O)[C@H](CO)NC(=O)[C@H](CO)NC(=O)[C@@H](NC(=O)[C@H](CC(=O)O)NC(=O)[C@H](CO)NC(=O)[C@@H](NC(=O)[C@H](Cc1ccccc1)NC(=O)[C@@H](NC(=O)CNC(=O)[C@H](CCC(=O)O)NC(=O)CNC(=O)[C@@H](N)Cc1c[nH]cn1)[C@@H](C)O)[C@@H](C)O)C(C)C)C(=O)N[C@@H](C)C(=O)N[C@@H](Cc1c[nH]c2ccccc12)C(=O)N[C@@H](CC(C)C)C(=O)N[C@H](C(=O)N[C@@H](CCCCN)C(=O)NCC(=O)N[C@@H](CCCNC(=N)N)C(=O)N[C@@H](CCCCN)C(=O)N[C@@H](CCCCN)C(=O)N[C@@H](CCCCN)C(=O)N[C@@H](CCCCN)C(=O)N[C@@H](CCCCN)C(=O)N[C@@H](CCCCN)C(N)=O)C(C)C [Compound 4]	6.8	28	99 % of t=0	89 % of t=0	84 % of t=0	98 % of t=0	95 % of t=0	81 % of t=0	83 % of t=0	58 % of t=0	56 % of t=0	72 % of t=0	70 % of t=0	58 % of t=0	128 % of t=0	72 % of t=0	78 % of t=0	detected in the plasma samples (rats) ([1]; intra duodenal administration of 1.000 nmol/kg): two out of four rats; detected in the plasma samples (rats) ([1]; intra duodenal administration of 10.000 nmol/kg): four out of five rats; T½ value relative to the unconjugated peptide ([2]; Table 5): approximately three times
CCCCCCCCCCCCCCCC(=O)NCCCC[C@H](NC(=O)[C@H](CCCNC(=N)N)NC(=O)CNC(=O)[C@H](CCCCN)NC(=O)[C@@H](NC(=O)[C@H](CC(C)C)NC(=O)[C@H](Cc1c[nH]c2ccccc12)NC(=O)[C@H](C)NC(=O)[C@@H](NC(=O)[C@H](Cc1ccccc1)NC(=O)[C@H](CCC(=O)O)NC(=O)[C@H](CCCCN)NC(=O)[C@H](C)NC(=O)[C@H](C)NC(=O)[C@H](CCC(N)=O)NC(=O)CNC(=O)[C@H](CCC(=O)O)NC(=O)[C@H](CC(C)C)NC(=O)[C@H](Cc1ccc(O)cc1)NC(=O)[C@H](CO)NC(=O)[C@H](CO)NC(=O)[C@@H](NC(=O)[C@H](CC(=O)O)NC(=O)[C@H](CO)NC(=O)[C@@H](NC(=O)[C@H](Cc1ccccc1)NC(=O)[C@@H](NC(=O)CNC(=O)[C@H](CCC(=O)O)NC(=O)CNC(=O)[C@@H](N)Cc1c[nH]cn1)[C@@H](C)O)[C@@H](C)O)C(C)C)[C@@H](C)CC)C(C)C)C(=O)N[C@@H](CCCCN)C(=O)N[C@@H](CCCCN)C(=O)N[C@@H](CCCCN)C(=O)N[C@@H](CCCCN)C(=O)N[C@@H](CCCCN)C(=O)N[C@@H](CCCCN)C(N)=O [Compound 5]			111 % of t=0	133 % of t=0	114 % of t=0	90 % of t=0	120 % of t=0	126 % of t=0	63 % of t=0	50 % of t=0	52 % of t=0	97 % of t=0	140 % of t=0	107 % of t=0	73 % of t=0	75 % of t=0	67 % of t=0	
CC[C@H](C)[C@H](NC(=O)[C@H](Cc1ccccc1)NC(=O)[C@H](CCC(=O)O)NC(=O)[C@H](CCCCN)NC(=O)[C@H](C)NC(=O)[C@H](C)NC(=O)[C@H](CCC(N)=O)NC(=O)CNC(=O)[C@H](CCC(=O)O)NC(=O)[C@H](CC(C)C)NC(=O)[C@H](Cc1ccc(O)cc1)NC(=O)[C@H](CO)NC(=O)[C@H](CO)NC(=O)[C@@H](NC(=O)[C@H](CC(=O)O)NC(=O)[C@H](CO)NC(=O)[C@@H](NC(=O)[C@H](Cc1ccccc1)NC(=O)[C@@H](NC(=O)CNC(=O)[C@H](CCC(=O)O)NC(=O)CNC(=O)[C@@H](N)Cc1cnc[nH]1)[C@@H](C)O)[C@@H](C)O)C(C)C)C(=O)N[C@@H](C)C(=O)N[C@@H](Cc1c[nH]c2ccccc12)C(=O)N[C@@H](CC(C)C)C(=O)N[C@H](C(=O)N[C@@H](CCCCN)C(=O)NCC(=O)N[C@@H](CCCNC(=N)N)C(N)=O)C(C)C [Compound (iii), reference compound]	2.3	10.8																level at time molar ([1]; Sprague-Dawley, rat, plasma, 10 nmol/kg): < 0.5 nM
